In patent US9873883B2, “Glyphosate resistant plants and associated methods” (Dow AgroSciences LLC, priority 2012, dated 2018):
Where two headings read alike, the source gives them in different places.

How the values were obtained:
Test in all cases: In vitro kinetic assay (inorganic phosphate production, malachite green)
Type in all cases: biochemical
[1] = biological target: T1, Brassica napus (canola) EPSP synthase DGT-3 (GENBANK P17688) variant DGT-3 v7 (G→A, P→S; GAPS) (Brassica napus, UniProt P17688, G173A/P178S); details: IC50 (glyphosate)
T1 construct: made in house; host or cells: E. coli Rosetta2 (DE3)
T1 sequence (P17688 73-516 G173A/P178S, one chain of several): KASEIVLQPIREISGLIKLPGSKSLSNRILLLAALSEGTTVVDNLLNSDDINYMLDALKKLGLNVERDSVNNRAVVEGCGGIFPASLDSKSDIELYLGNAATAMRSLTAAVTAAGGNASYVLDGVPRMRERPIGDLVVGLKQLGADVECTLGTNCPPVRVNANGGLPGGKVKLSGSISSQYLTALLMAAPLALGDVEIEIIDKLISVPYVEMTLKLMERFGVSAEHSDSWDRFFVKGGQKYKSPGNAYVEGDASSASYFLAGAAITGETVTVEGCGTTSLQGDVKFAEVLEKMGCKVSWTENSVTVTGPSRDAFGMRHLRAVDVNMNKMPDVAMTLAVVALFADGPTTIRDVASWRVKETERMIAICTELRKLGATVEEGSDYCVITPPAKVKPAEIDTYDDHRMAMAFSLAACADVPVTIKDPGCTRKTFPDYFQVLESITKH

[2] = biological target: Glycine max (soybean) EPSP synthase DGT-1 variant DGT-1 v7 (G→A, P→S; GAPS) (Glycine max, UniProt I1J7U9, G182A/P187S)
Chain of Glycine max (soybean) EPSP synthase DGT-1 variant DGT-1 v7 (G→A, P→S; GAPS) (I1J7U9 entry or part of it G182A/P187S): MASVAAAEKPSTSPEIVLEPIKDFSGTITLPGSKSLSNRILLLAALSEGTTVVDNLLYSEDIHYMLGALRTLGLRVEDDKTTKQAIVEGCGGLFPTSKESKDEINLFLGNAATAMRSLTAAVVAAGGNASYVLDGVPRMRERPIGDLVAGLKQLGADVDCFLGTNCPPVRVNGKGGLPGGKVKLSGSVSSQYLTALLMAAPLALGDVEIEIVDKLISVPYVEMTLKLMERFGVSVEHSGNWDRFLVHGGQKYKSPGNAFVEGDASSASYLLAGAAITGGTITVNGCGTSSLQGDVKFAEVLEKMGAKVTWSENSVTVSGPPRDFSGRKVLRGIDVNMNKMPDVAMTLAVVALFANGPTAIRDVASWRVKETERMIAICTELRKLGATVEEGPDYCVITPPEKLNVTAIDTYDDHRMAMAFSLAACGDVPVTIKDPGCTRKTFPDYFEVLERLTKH

[3] = biological target: T2, Triticum aestivum (wheat) EPSP synthase DGT-7 variant DGT-7 v7 (G→A, P→S; GAPS) (Triticum aestivum, UniProt B5M6A1, G167A/P172S); details: IC50 (glyphosate)
T2 construct: GAPS double mutant
T2 sequence (B5M6A1 entry or part of it G167A/P172S): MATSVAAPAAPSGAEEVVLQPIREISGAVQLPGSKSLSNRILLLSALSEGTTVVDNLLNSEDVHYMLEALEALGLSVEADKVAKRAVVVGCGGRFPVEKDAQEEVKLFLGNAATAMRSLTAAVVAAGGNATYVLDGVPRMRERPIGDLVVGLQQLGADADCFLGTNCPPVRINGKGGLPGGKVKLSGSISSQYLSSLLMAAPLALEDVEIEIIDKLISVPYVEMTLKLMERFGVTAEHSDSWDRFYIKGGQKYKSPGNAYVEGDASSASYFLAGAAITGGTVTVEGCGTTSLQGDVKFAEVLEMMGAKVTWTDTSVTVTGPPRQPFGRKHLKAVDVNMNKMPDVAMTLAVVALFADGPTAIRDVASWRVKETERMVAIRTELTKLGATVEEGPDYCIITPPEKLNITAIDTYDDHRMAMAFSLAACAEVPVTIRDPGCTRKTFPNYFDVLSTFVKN

SMILES: O=C(O)CNCP(=O)(O)O [glyphosate, N-(phosphonomethyl)glycine]
- IC50 ([1]; at 60 μM PEP): 42 mM
- IC50 ([1]; at 1 mM PEP, values greater than 50 are estimates): 50.5 mM
- IC50 [2]: > 80 mM
- IC50 ([2]; read-out: IC50 (glyphosate), at 60 μM PEP, values greater than 50 are estimates): > 80 mM
- IC50 ([3]; at 60 μM PEP): 15.4 mM
- IC50 ([3]; at 1 mM PEP): 19.7 mM
